This note sets out measurements from patent publication US20230116602A1, “MCL1 INHIBITORS AND USES THEREOF” (California Institute of Technology, priority 2019, published 2023).

Usually IC50 stands for the concentration at which inhibition is half-maximal. The Kd is the concentration at which binding is half-saturated.

The subject of experiment [1] is drug-resistant cell lines of Table 3. The experiment in a line: Cell line growth retardation assay, resistant cohort. In kind it is cell-based, Human. The note with it: arithmetic mean of IC50s over the resistant cohort of Table 3, 6 days growth, read-out: AvgRes IC50. The method, boiled down: (§1)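 Over 6 days of treatment at six concentrations (0.0032–10 μM), given after a 24 h post-seeding rest, population doublings were counted by imaging against a pre-dose baseline and compared with vehicle. Per-line IC50 values came from dose-response fits; cohort averages used arithmetic means, with sensitive/resistant grouping based on response to reference MCL1 inhibitors.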

Another experiment has as its target BCL2 (Homo sapiens, UniProt P10415). The experiment is described as follows: BCL2 affinity assay (competition binding, qPCR readout). The settings on record: recombinant BCL2, 11-point 3-fold dilution series. The procedure, abridged: (§2)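 Kds derived from an 11-point 3-fold compound series measured by qPCR of protein eluted from ligand beads. Recombinant, DNA-tagged protein from E. coli or HEK-293 was mixed with compound and peptide-liganded beads in SeaBlock/PBS/Tween/DTT buffer for 1 hour at room temperature (0.9% DMSO).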
(Quantitative PCR measures a nucleic acid by following its amplification.)

Another experiment addresses MCL1 (Homo sapiens, UniProt Q07820). The experiment is described as follows: MCL1 affinity assay (competition binding, qPCR readout). The settings on record: recombinant MCL1, 11-point 3-fold dilution series. The procedure, abridged:
as §2

Experiment [2] relates to drug-sensitive cell lines of Table 3. The experiment in a line: Cell line growth retardation assay, sensitive cohort. The note with it: for IC50: arithmetic mean of IC50s over the sensitive cohort of Table 3, 6 days growth, read-out: AvgSen IC50; for Fold Diff: average IC50 of resistant cohort divided by average IC50 of sensitive cohort. It counts as cell-based, Human. The method, boiled down: as §1

A further experiment concerns the target BCLXL (Homo sapiens, UniProt Q07817). The experiment is described as follows: BCLXL affinity assay (competition binding, qPCR readout). The note with it: recombinant BCLXL, 11-point 3-fold dilution series. The method, boiled down: as §2

Where two headings read alike, the source gives them in different places.

Sequence of BCLXL (Q07817 whole entry): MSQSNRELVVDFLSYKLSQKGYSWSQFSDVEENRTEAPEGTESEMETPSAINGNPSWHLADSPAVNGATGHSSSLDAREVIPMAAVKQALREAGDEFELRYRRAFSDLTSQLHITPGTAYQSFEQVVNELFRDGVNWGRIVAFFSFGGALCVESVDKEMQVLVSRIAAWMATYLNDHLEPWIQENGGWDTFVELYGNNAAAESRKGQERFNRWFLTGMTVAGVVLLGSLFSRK
Sequence of MCL1 (Q07820 whole entry): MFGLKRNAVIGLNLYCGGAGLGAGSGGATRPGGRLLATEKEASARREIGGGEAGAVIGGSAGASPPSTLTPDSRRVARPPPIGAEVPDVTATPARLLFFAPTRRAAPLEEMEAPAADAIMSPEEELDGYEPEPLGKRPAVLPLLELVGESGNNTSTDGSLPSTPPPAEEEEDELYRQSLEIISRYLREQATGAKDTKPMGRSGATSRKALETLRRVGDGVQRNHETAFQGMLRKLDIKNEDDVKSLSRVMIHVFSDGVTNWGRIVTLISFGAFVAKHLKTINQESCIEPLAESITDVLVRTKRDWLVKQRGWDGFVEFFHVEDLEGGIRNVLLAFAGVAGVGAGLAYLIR
Sequence of BCL2 (P10415 whole entry): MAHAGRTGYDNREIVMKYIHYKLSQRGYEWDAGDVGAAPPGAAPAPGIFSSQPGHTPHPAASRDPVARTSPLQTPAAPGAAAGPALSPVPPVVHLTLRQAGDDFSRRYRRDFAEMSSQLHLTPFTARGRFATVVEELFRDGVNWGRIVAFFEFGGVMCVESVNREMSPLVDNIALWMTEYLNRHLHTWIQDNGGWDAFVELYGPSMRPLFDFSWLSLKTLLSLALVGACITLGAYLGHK

Take `Cc1c(-c2c(-c3ccc(F)s3)ncc3snc(O[C@H](Cc4ccccc4OCc4ccnn4CC(F)(F)F)C(=O)O)c23)ccc(OCCN2CCN(C)CC2)c1Cl` (single isomer, unassigned) [Compound 1]: the half-inhibitory concentration (IC50) in experiment [1] (Homo sapiens, 144 h) is greater than 5000 nM; in experiment [2], greater than 5000 nM. For the same compound, the Kd on BCL2, at MCL1 and on BCLXL was greater than 1500 nM each time. The “Fold Diff” value in experiment [2] was “− (“−” represents a fold difference less than 10)”.
As to `Cc1c(-c2c(-c3cccc4ccoc34)ncc3snc(O[C@H](Cc4ccccc4OCc4ccnn4CC(F)(F)F)C(=O)O)c23)ccc(OCCN2CCN(C)CC2)c1Cl` (atropisomer, axis not shown) [Compound 21], the IC50 in experiment [1] (Homo sapiens, 144 h) is greater than 5000 nM; in experiment [2] (Homo sapiens, 144 h), 1000 to 5000 nM. Also, the Kd is greater than 1500 nM at BCL2, 101 to 500 nM at MCL1 and greater than 1500 nM on BCLXL. Further, in experiment [2], the “Fold Diff” value was “− (“−” represents a fold difference less than 10)”.
Regarding `COc1cccc(-c2ncc3snc(O[C@H](Cc4ccccc4OCc4ccnc(-c5ccccc5OC)n4)C(=O)O)c3c2-c2ccc(OCCN(C)C)c(Cl)c2C)c1` (atropisomer, axis not shown) [Compound 46], the half-maximal inhibitory concentration (IC50) in experiment [1] (Homo sapiens, 144 h) is greater than 5000 nM; in experiment [2] (Homo sapiens, 144 h) it was no more than 1000 nM. The results for the dissociation constant Kd at BCL2, on MCL1 and at BCLXL were greater than 1500 nM, no more than 100 nM and greater than 1500 nM, respectively. Further, the “Fold Diff” value in experiment [2] is reported as “+ (“+” represents a fold difference of 10 or more)”.
As to `Cc1cc2cccc(-c3ncc4snc(O[C@H](Cc5ccccc5OCc5ccnn5CC(F)(F)F)C(=O)O)c4c3-c3ccc(OCCN4CCN(C)CC4)c(Cl)c3C)c2[nH]1` (atropisomer, axis not shown) [Compound 17], the IC50 is greater than 5000 nM in experiment [1] (Homo sapiens, 144 h) and greater than 5000 nM in experiment [2] (Homo sapiens, 144 h). For the same compound, the Kd on BCL2 is greater than 1500 nM; on MCL1, 501 to 1500 nM; at BCLXL it was greater than 1500 nM. Besides, in experiment [2], the “Fold Diff” value is recorded as “− (“−” represents a fold difference less than 10)”.
As to `COc1cccc(-c2ncc3snc(O[C@H](Cc4ccccc4OCc4ccnc(-c5ccccc5OC)n4)C(=O)O)c3c2-c2ccc(OC)c(Cl)c2C)c1` (atropisomer, axis not shown) [Compound 51], the IC50 is greater than 5000 nM in experiment [1] (Homo sapiens, 144 h) and 1000 to 5000 nM in experiment [2] (Homo sapiens, 144 h). In addition, the dissociation constant (Kd) is greater than 1500 nM at BCL2, no more than 100 nM at MCL1 and greater than 1500 nM at BCLXL. In experiment [2], the “Fold Diff” value is “− (“−” represents a fold difference less than 10)”.
Take `COc1cccc(-c2ncc3snc(O[C@H](Cc4ccccc4OCc4ccnc(-c5ccccc5OC)n4)C(=O)O)c3c2-c2ccc(OCCN3CCCCC3)c(Cl)c2C)c1` (atropisomer, axis not shown) [Compound 43]: the IC50 is greater than 5000 nM in experiment [1] (Homo sapiens, 144 h) and 1000 to 5000 nM in experiment [2] (Homo sapiens, 144 h). The Kd at BCL2 was greater than 1500 nM; on MCL1, no more than 100 nM; on BCLXL, greater than 1500 nM. In experiment [2], the “Fold Diff” value was “− (“−” represents a fold difference less than 10)”.
Consider `Cc1c(-c2c(Cl)ncc3snc(O[C@H](Cc4ccccc4OCc4ccnn4CC(F)(F)F)C(=O)O)c23)ccc(OCCN2CCN(C)CC2)c1Cl` (single isomer, unassigned) [Compound 4], for which the IC50 in experiment [1] and in experiment [2] was greater than 5000 nM throughout. The figures for the Kd on BCL2, at MCL1 and on BCLXL were greater than 1500 nM, 501 to 1500 nM and greater than 1500 nM, respectively. In addition, the “Fold Diff” value in experiment [2] was “− (“−” represents a fold difference less than 10)”.
As for `Cc1c(-c2c(Cl)ncc3snc(O[C@H](Cc4ccccc4OCc4ccnn4CC(F)(F)F)C(=O)O)c23)ccc(OCCN2CCN(C)CC2)c1Cl` (single isomer, unassigned) [Compound 3], the IC50 in experiment [1] (Homo sapiens, 144 h) was greater than 5000 nM; in experiment [2] (Homo sapiens, 144 h), greater than 5000 nM. Besides, the Kd at BCL2, at MCL1 and on BCLXL was greater than 1500 nM each time. Further, the “Fold Diff” value in experiment [2] was “− (“−” represents a fold difference less than 10)”.
Regarding `Cc1c(-c2c(C3CC3)ncc3snc(O[C@H](Cc4ccccc4OCc4ccnn4CC(F)(F)F)C(=O)O)c23)ccc(OCCN2CCN(C)CC2)c1Cl` (atropisomer, axis not shown) [Compound 30], the IC50 in experiment [1] (Homo sapiens, 144 h) was greater than 5000 nM; in experiment [2] (Homo sapiens, 144 h), 1000 to 5000 nM. For the same compound, the dissociation constant Kd at BCL2 is greater than 1500 nM; on MCL1 it was no more than 100 nM; at BCLXL it was greater than 1500 nM. In addition, the “Fold Diff” value in experiment [2] was “− (“−” represents a fold difference less than 10)”.
For `COc1ccccc1-c1nccc(COc2ccccc2C[C@@H](Oc2nsc3cnc(-c4ccc(F)cc4)c(-c4ccc(OCCN5CCN(C)CC5)c(Cl)c4C)c23)C(=O)O)n1` [Compound 40], the half-inhibitory concentration (IC50) in experiment [1] (Homo sapiens, 144 h) is greater than 5000 nM; in experiment [2] (Homo sapiens, 144 h), no more than 1000 nM. Also, the equilibrium dissociation constant (Kd) on BCL2 is greater than 1500 nM; on MCL1, no more than 100 nM; on BCLXL, greater than 1500 nM. In addition, the “Fold Diff” value in experiment [2] is “+ (“+” represents a fold difference of 10 or more)”.
Turning to `Cc1c(-c2c(-c3ccsc3)ncc3snc(O[C@H](Cc4ccccc4OCc4ccnn4CC(F)(F)F)C(=O)O)c23)ccc(OCCN2CCN(C)CC2)c1Cl` (atropisomer, axis not shown) [Compound 27], the IC50 in experiment [1] (Homo sapiens, 144 h) is greater than 5000 nM; in experiment [2] (Homo sapiens, 144 h), 1000 to 5000 nM. Moreover, the figures for the Kd on BCL2, on MCL1 and on BCLXL were greater than 1500 nM, 101 to 500 nM and greater than 1500 nM, respectively. The “Fold Diff” value in experiment [2] was “− (“−” represents a fold difference less than 10)”.
For the compound `COc1cccc(-c2ncc3snc(O[C@H](Cc4ccccc4OCc4ccnc(-c5ccccc5OC)n4)C(=O)O)c3c2-c2ccc(OCCC3CCN(C)CC3)c(Cl)c2C)c1` (atropisomer, axis not shown) [Compound 45], the IC50 in experiment [1] (Homo sapiens, 144 h) was greater than 5000 nM; in experiment [2] (Homo sapiens, 144 h), 1000 to 5000 nM. The Kd on BCL2 was greater than 1500 nM; on MCL1, no more than 100 nM; at BCLXL, greater than 1500 nM. For the same compound, in experiment [2], the “Fold Diff” value is recorded as “− (“−” represents a fold difference less than 10)”.
As for `Cc1c(-c2c(C3CCC3)ncc3snc(O[C@H](Cc4ccccc4OCc4ccnn4CC(F)(F)F)C(=O)O)c23)ccc(OCCN2CCN(C)CC2)c1Cl` (atropisomer, axis not shown) [Compound 29], the concentration for half-maximal inhibition (IC50) in experiment [1] (Homo sapiens, 144 h) is greater than 5000 nM; in experiment [2] (Homo sapiens, 144 h), no more than 1000 nM. The Kd at BCL2 was greater than 1500 nM; at MCL1, no more than 100 nM; at BCLXL, greater than 1500 nM. Besides, the “Fold Diff” value in experiment [2] was “+ (“+” represents a fold difference of 10 or more)”.
As to `Cc1c(-c2c(-c3cccc(F)c3)ncc3snc(O[C@H](Cc4ccccc4)C(=O)O)c23)ccc(OCCN2CCN(C)CC2)c1Cl` (atropisomer, axis not shown) [Compound 92], the IC50 was greater than 5000 nM in experiment [1] (Homo sapiens, 144 h) and 1000 to 5000 nM in experiment [2] (Homo sapiens, 144 h). Further, the figures for the Kd at BCL2, on MCL1 and at BCLXL were greater than 1500 nM, 501 to 1500 nM and greater than 1500 nM, respectively. The “Fold Diff” value in experiment [2] is given as “− (“−” represents a fold difference less than 10)”.
Regarding `COc1cccc(-c2ncc3snc(O[C@H](Cc4ccccc4OCc4ccnc(-c5ccccc5OC)n4)C(=O)O)c3c2-c2ccc(O)c(Cl)c2C)c1` (atropisomer, axis not shown) [Compound 41], the 50% inhibitory concentration (IC50) is greater than 5000 nM in experiment [1] (Homo sapiens, 144 h) and 1000 to 5000 nM in experiment [2] (Homo sapiens, 144 h). For the same compound, the values for the Kd at BCL2, at MCL1 and on BCLXL were greater than 1500 nM, no more than 100 nM and greater than 1500 nM, respectively. Further, in experiment [2], the “Fold Diff” value is on record as “− (“−” represents a fold difference less than 10)”.
As to `Cc1c(-c2c(-c3cccc(F)c3)ncc3snc(O[C@H](Cc4ccccc4OCc4ccnc(-c5ccncc5)n4)C(=O)O)c23)ccc(OCCN2CCN(C)CC2)c1Cl` (atropisomer, axis not shown) [Compound 72], the concentration for half-maximal inhibition (IC50) in experiment [1] (Homo sapiens, 144 h) was greater than 5000 nM; in experiment [2] (Homo sapiens, 144 h), no more than 1000 nM. For the same compound, the dissociation constant (Kd) was greater than 1500 nM on BCL2, no more than 100 nM on MCL1 and greater than 1500 nM at BCLXL. For the same compound, in experiment [2], the “Fold Diff” value was “+ (“+” represents a fold difference of 10 or more)”.
As for `Cc1c(-c2c(-c3cn(C)c4ccccc34)ncc3snc(O[C@H](Cc4ccccc4OCc4ccnn4CC(F)(F)F)C(=O)O)c23)ccc(OCCN2CCN(C)CC2)c1Cl` (atropisomer, axis not shown) [Compound 20], the IC50 in experiment [1] (Homo sapiens, 144 h) is greater than 5000 nM; in experiment [2] (Homo sapiens, 144 h) it was greater than 5000 nM. Further, the Kd is greater than 1500 nM on BCL2, 501 to 1500 nM on MCL1 and greater than 1500 nM on BCLXL. Also, in experiment [2], the “Fold Diff” value was “− (“−” represents a fold difference less than 10)”.
Take `Cc1c(-c2c(-c3cccc(F)c3)ncc3snc(O[C@H](Cc4ccccc4OCc4ccnn4CC(F)(F)F)C(=O)O)c23)ccc(OCCN2CCN(C)CC2)c1Cl` (atropisomer, axis not shown) [Compound 26]: the half-inhibitory concentration (IC50) was greater than 5000 nM in experiment [1] (Homo sapiens, 144 h) and no more than 1000 nM in experiment [2] (Homo sapiens, 144 h). Besides, the dissociation constant Kd at BCL2 was greater than 1500 nM; on MCL1 it was 101 to 500 nM; on BCLXL, greater than 1500 nM. The “Fold Diff” value in experiment [2] is on record as “+ (“+” represents a fold difference of 10 or more)”.
Consider `COc1cccc(-c2ncc3snc(O[C@H](Cc4ccccc4OCc4ccnc(-c5ccccc5OC)n4)C(=O)O)c3c2-c2ccc(OCCCN(C)C)c(Cl)c2C)c1` (atropisomer, axis not shown) [Compound 47], for which the IC50 in experiment [1] (Homo sapiens, 144 h) was greater than 5000 nM; in experiment [2] (Homo sapiens, 144 h), no more than 1000 nM. Besides, the Kd was greater than 1500 nM at BCL2, no more than 100 nM on MCL1 and greater than 1500 nM at BCLXL. Further, the “Fold Diff” value in experiment [2] was “+ (“+” represents a fold difference of 10 or more)”.
